Active and inactive are the calls of the source.
Tests used:
[1] = target: T1, E3 ubiquitin-protein ligase XIAP (Homo sapiens, UniProt P98170); test: XIAP antagonists, biochemical, IAP family, fluorescence polarization (AID 1018); format: functional
[2] = target: Protein-tyrosine kinase 2-beta (Homo sapiens, UniProt Q14289);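 also: potency of inhibitors of PYK2 kinase phosphorylation of poly-GT substrate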
[3] = target: T1, E3 ubiquitin-protein ligase XIAP; test: Counter Screen using XIAP-Bir3 for Chemical Antagonists of Bir1/2 domains of IAP-family anti-apoptotic proteins. [Related pubchem assays (depositor defined):AID1018, AID1449, AID1514, AID1638, AID1749, AID1750, AID488957, AID488963]
[4] = target: Peroxisome proliferator-activated receptor gamma/Nuclear receptor coactivator 3 (Homo sapiens, UniProt P37231); test: (§1) TR-FRET dose response biochemical High Throughput Screening assay for agonists of the steroid receptor coactivator 3 (SRC-3) recruitment by the peroxisome proliferator-activated receptor gamma (PPAR gamma): non-selective agonists. [Related pubchem assays: 1301 (Confirmation screen.), 1048 (Primary screen.)]; format: functional
[5] = target: Peroxisome proliferator-activated receptor gamma/Nuclear receptor coactivator 1 (Homo sapiens, UniProt P37231); test: as §1, with “1 (SRC-1)” for “3 (SRC-3)”, “assays (depositor defined):AID1300, AID1808, AID504735, AID631]” for “assays: 1301 (Confirmation screen.), 1048 (Primary screen.)]”; format: protein assay
[6] = target: Peroxisome proliferator-activated receptor gamma/Nuclear receptor coactivator 2 (Homo sapiens, UniProt P37231); test: TR-FRET dose response biochemical High Throughput Screening assay for agonists of the steroid receptor coactivator 2 (SRC-2) recruitment by the peroxisome proliferator-activated receptor gamma (PPAR gamma): non-selective agonists. [Related pubchem assays: 1297, 1032 ]; format: functional
Major prion protein = Major prion protein (Homo sapiens, UniProt P04156); format: functional, cell-based

SMILES	IC50 [1]	IC50 [2]	IC50 [3]	EC50 [4]	EC50 [5]	EC50 [6]	IC50 (Major prion protein)
COc1ccc(OC)c(NS(=O)(=O)Cc2ccccc2)c1	> 100 µM (not active)	12 µM (not active)	> 100 µM (inactive)				
CC(C)N(CC#CCC(O)(c1ccccc1)c1ccccc1)CCO	> 100 µM (not active)		> 100 µM (inactive)				
COC(=O)c1cc(Cl)c(NC(=O)c2cc3ccccc3o2)cc1OC				63 µM (not active)	7.17 µM (active)	12.3 µM (not active)	
CC(=O)CSc1nc(-c2cccs2)c(C#N)c(=O)[nH]1				> 79.4 µM (not active)	> 79.4 µM (inactive)	> 79.4 µM (not active)	2.27 µM (active)

Reference: ChEMBL document CHEMBL1201862, “PubChem BioAssay data set” (2004)
